The test system of experiment [1] is MCF-7 human breast adenocarcinoma cells. The experiment can be described thus: Cytotoxicity, SRB binding assay. Type of experiment: cell-based. The conditions noted are these: MCF7, inhibition of cell proliferation, 48 h, read-out: MCF-7 IC50. How it is done: To further assess the biological efficacies of the Compounds in intact cells, each Compound was evaluated for cytotoxicity using human cancer cell lines. These experiments followed methods that have been extensively used. Cell lines tested included MCF-7 human breast adenocarcinoma cells and MCF-10A non-transformed human breast epithelial cells. The indicated cell lines were treated with varying doses of the test Compound for 48 h. Cell survival was then determined using the SRB binding assay (Skehan et al., 1990, J Natl Cancer Inst 82: 1107), and the concentration of compound that inhibited proliferation by 50% (the IC50) was calculated. Values (in μM) represent the mean±sd for replicate trials.
For orientation: Sulforhodamine B stains cellular protein and so reports cell mass.

In a further experiment the test system is recombinant human SK. The experiment can be described thus: Inhibition of recombinant human SK, LC/MS/MS assay. Type of experiment: biochemical. The conditions noted are these: 6 μg/ml compound. How it is done: SK activity is measured by incubation of the recombinant SK with [^3H]sphingosine and 1 mM ATP under defined conditions, followed by extraction of the assay mixture with chloroform:methanol under basic conditions. […] Radioactivity in aliquots of the aqueous phase is then quantified as a measure of [^3H]S1P formation.
In an alternate assay procedure, the recombinant human SK was incubated with unlabeled sphingosine and ATP as described above. After 30 minutes, the reactions were terminated by the addition of acetonitrile to directly extract the newly synthesized S1P. The amount of S1P in the samples is then quantified as follows. C17 base D-erythro-sphingosine and C17 SIP are used as internal standards for sphingosine and S1P, respectively. […] The lipids are then fractionation by High-Performance Liquid Chromatography using a C8-reverse phase column eluted with 1 mM methanolic ammonium formate/2 mM aqueous ammonium formate. […] Calibration curves are generated by plotting the peak area ratios of the synthetic standards for each sphingolipid, and used to determine the normalized amounts of sphingosine and S1P in the samples.
Each Compound of this invention was tested for its ability to inhibit recombinant SK using the LC/MS/MS assay described above.

The term IC50 denotes the concentration that inhibits the measured activity by half.

Where only a bound is given, the exact number is not on record here.

As for `COc1ccc(CCNC(=O)C23CC4CC(C2)CC(c2ccc(Cl)cc2)(C4)C3)cc1Br` [Compound 42, 3-(4-Chloro-phenyl)-adamantane-1-carboxylic acid [2-(3-bromo-4-methoxy-phenyl)-ethyl]-amide], the IC50 in experiment [1] is > 100 µM. The “Recombinant SK (% inhibition)” value in the experiment with recombinant human SK was 5%.

Regarding `CN(C)c1ccc(CNC(=O)C23CC4CC(C2)CC(c2ccc(Cl)cc2)(C4)C3)cc1` [Compound 31, 3-(4-Chloro-phenyl)-adamantane-1-carboxylic acid 4-dimethylamino-benzylamide], the 50% inhibitory concentration (IC50) in experiment [1] was found to be 74 µM. In the experiment on recombinant human SK, the “Recombinant SK (% inhibition)” value is given as 74%.

In the case of `O=C(NCc1cccc(OC(F)(F)F)c1)C12CC3CC(C1)CC(c1ccc(Cl)cc1)(C3)C2` [Compound 33, 3-(4-Chloro-phenyl)-adamantane-1-carboxylic acid 3-trifluoromethoxy-benzylamide], the IC50 in experiment [1] was 30 µM. Besides, in the experiment on recombinant human SK, the “Recombinant SK (% inhibition)” value was 10%.

As for `CN1CCN(NCC23CC4CC(C2)CC(c2ccc(Cl)cc2)(C4)C3)CC1` [Compound 83, [3-(4-Chloro-phenyl)-adamantan-1-ylmethyl]-(4-methyl-piperazin-1-yl)-amine], the IC50 in experiment [1] came to 5 µM. Further, the “Recombinant SK (% inhibition)” value with recombinant human SK is listed as 60%.

With `O=C(NCc1ccc(F)c(Cl)c1)C12CC3CC(C1)CC(c1ccc(Cl)cc1)(C3)C2` [Compound 23, 3-(4-Chloro-phenyl)-adamantane-1-carboxylic acid 3-chloro-4-fluoro-benzylamide], the IC50 in experiment [1] was 23 µM. Further, in the experiment with recombinant human SK, the “Recombinant SK (% inhibition)” value is recorded as 0%.

Turning to `Clc1ccc(C23CC4CC(CC(CNCc5ccncc5)(C4)C2)C3)cc1` [Compound 88, [3-(4-Chloro-phenyl)-adamantan-1-ylmethyl]-pyridin-4-ylmethyl-amine], in experiment [1], the IC50 came to 11 µM. In addition, the “Recombinant SK (% inhibition)” value in the experiment on recombinant human SK is reported as 1%.

Consider `Fc1cc(C(F)(F)F)ccc1CNCC12CC3CC(C1)CC(c1ccc(Cl)cc1)(C3)C2` [Compound 78, [3-(4-Chloro-phenyl)-adamantan-1-ylmethyl]-(2-fluoro-4-trifluoromethyl-benzyl)-amine], for which, in experiment [1], the IC50 was 30 µM. Besides, the “Recombinant SK (% inhibition)” value with recombinant human SK stood at 43%.

As to `O=C(NCc1ccc(C(F)(F)F)cc1)C12CC3CC(C1)CC(c1ccc(Cl)cc1)(C3)C2` [Compound 16, 3-(4-Chloro-phenyl)-adamantane-1-carboxylic acid 4-trifluoromethyl-benzylamide], in experiment [1], the half-inhibitory concentration (IC50) is 17 µM. The “Recombinant SK (% inhibition)” value with recombinant human SK was found to be 8%.

Consider `O=C(/C=C/c1ccc(Cl)cc1)C12CC3CC(C1)CC(c1ccc(Cl)cc1)(C3)C2` [Compound 130, 3-(4-Chloro-phenyl)-1-[3-(4-chloro-phenyl)-adamantan-1-yl]-propenone], for which, in experiment [1], the IC50 was 7 µM. Moreover, in the experiment on recombinant human SK, the “Recombinant SK (% inhibition)” value was 38%.

For `O=C(NCCc1ccc(Oc2ccccc2)cc1)C12CC3CC(C1)CC(c1ccc(Cl)cc1)(C3)C2` [Compound 47, 3-(4-Chloro-phenyl)-adamantane-1-carboxylic acid [2-(4-phenoxy-phenyl)-ethyl]-amide], the IC50 in experiment [1] stood at 16 µM. In the experiment on recombinant human SK, the “Recombinant SK (% inhibition)” value stood at 26%.

As to `O=C(/C=C/c1cnc[nH]1)C12CC3CC(C1)CC(c1ccc(Cl)cc1)(C3)C2` [Compound 135, 1-[3-(4-Chloro-phenyl)-adamantan-1-yl]-3-(1H-imidazol-4-yl)-propenone], the IC50 in experiment [1] was determined as 3 µM. In the experiment with recombinant human SK, the “Recombinant SK (% inhibition)” value was 64%.

In the case of `O=C(NCc1cc(C(F)(F)F)cc(C(F)(F)F)c1)C12CC3CC(C1)CC(c1ccc(Cl)cc1)(C3)C2` [Compound 17, 3-(4-Chloro-phenyl)-adamantane-1-carboxylic acid 3,5-bis-trifluoromethyl-benzylamide], the IC50 in experiment [1] is 17 µM. For the same molecule, the “Recombinant SK (% inhibition)” value in the experiment on recombinant human SK turned out to be 56%.

In the case of `O=C1CCCN1CCCNC(=O)C12CC3CC(C1)CC(c1ccc(Cl)cc1)(C3)C2` [Compound 55, 3-(4-Chloro-phenyl)-adamantane-1-carboxylic acid [3-(2-oxo-pyrrolidin-1-yl)-propyl]-amide], the “Recombinant SK (% inhibition)” value with recombinant human SK came to 8%.

These data come from patent US8557800B2, “Sphingosine kinase inhibitors” (Apogee Biotechnology Corporation, priority 2005, dated 2013).
